Measurements from patent US20180209962A1, “SCREENING METHOD USING INDUCED NEURONS” (KYOTO UNIVERSITY, priority 2014, published 2018).

Assays:
Type in all cases: cell-based
mouse tauopathy iNs [1] = assay: Dot blot of tau oligomer in culture supernatant and cell extracts of mouse tauopathy iNs; settings: added at day 5, 48 hours later, final concentration 25 μM
Description: (§1) FIG. 7 FIGS. 7A and 7B show results of adding AP-5 (final concentration: 25 μM) or CNQX (final concentration: 25 μM) to mouse tauopathy iNs or mouse normal iNs of day 5, preparing a culture supernatant and cell extracts 48 hours later, and analyzing the amounts of tau and a tau oligomer contained in the culture supernatant and the cell extracts by dot blot (FIG. 7A), and the results of quantifying their signals (FIG. 7B). In FIGS. 7C and 7D, AP-5 or CNQX was added to mouse tauopathy iNs of day 7, and a survival rate at day 10 (=the number of live neurons at day 10/the number of live neurons at day 7)×100) was indicated in a graph.
Cells were recovered from the culture system of iNs, suspended in TBS (Tris buffered saline) containing a protease inhibitor and a phosphatase inhibitor, and then ultrasonicated to homogenize the cells. The cell homogenates were centrifuged (13,000×g, 15 min), and the supernatant was recovered as cell extracts. The cell extracts from the iNs of each type were blotted at 1.2 μg protein/spot onto a nitrocellulose membrane (pore size: 0.45 μm, GE Healthcare Japan Corp.).
Also, a medium was recovered from the cell culture system and subjected to low-speed centrifugation (1,000 rpm, 3 min) to precipitate cellular debris. The obtained supernatant was recovered as a culture supernatant. A 500 μl aliquot of each culture supernatant was transferred to a tube with an ultrafiltration filter (Vivaspin, molecular weight cutoff: 10 kD, GE Healthcare Japan Corp.) and concentrated to 50 μl. 2 μl of each concentrated sample was blotted onto the nitrocellulose membrane.
The nitrocellulose membrane obtained by the method was treated with various tau antibodies according to a standard method, followed by detection (Western Lightning Plus-ECL, PerkinElmer, Inc.) and signal quantification (ImageQuant LAS4000, GE Healthcare Japan Corp.). Tau 12, Tau 5, and TOC1 antibodies were used a human tau-specific antibody, an antibody recognizing human tau and mouse tau, and a tau oligomer-specific antibody, respectively. In Examples of the present application, the TOC1 antibody (Non-Patent Document 13) used was provided by Dr. Nicholas Kanaan from Department of Translational Science and Molecular Medicine, College of Human Medicine, Michigan State University (USA).
(§2) AP-5 or CNQX was added to the culture system of mouse tauopathy iNs of day 5. 48 hours later, a culture supernatant and cell extracts were prepared therefrom, and the amount of a tau oligomer, the amount of human tau, and the total amount of tau were analyzed by dot blot (FIGS. 7A and 7B). Also, AP-5 or CNQX was added to the culture system of mouse tauopathy iNs of day 7. Three days later, a cell survival rate was calculated (FIGS. 7C and 7D).

human tauopathy iNs [2] = assay: Cell survival rate of human tauopathy iNs; settings: added at day 16, survival at day 21
From the text: FIGS. 10A and 10B show results of measuring change in intracellular calcium concentration between before and after electric stimulation by use of a calcium imaging method in human tauopathy iNs or human normal iNs of day 12 (FIG. 10A, n=6). The arrows shown in the abscissa represent time points at which the cells were given electric stimulation. The ordinate (ΔF/F) depicts change in the fluorescence intensity of a calcium indicator (Fluo-8/AM) after the stimulation with respect to its baseline fluorescence intensity. FIG. 10B is a graph on which the largest value of the ΔF/F was plotted. […] The upper left panel “pre” depicts the human tauopathy iNs of day 16 before the addition of the reagent.
Next, AP-5 or CNQX was added to the culture system of human tauopathy iNs of day 16, and a cell survival rate at day 21 was calculated. The treatment with any of these agents tended to elevate the cell survival rate.

[3] = test system: mouse tauopathy iNs and mouse normal iNs; assay: Action potential / excitatory postsynaptic current of iNs in the presence of glutamate receptor antagonists; settings: for generation of excitatory postsynaptic current: mouse normal iNs, CNQX and AP-5 administered together; for generation of action potential: mouse tauopathy iNs and mouse normal iNs, AP-5 and CNQX present together
From the text: FIGS. 1A and 1B show results of confirming, by immunostaining (FIG. 1A) or RT-PCR (FIG. 1B), that iPSCs prepared from a transgenic mouse harboring a P301S mutant human MAPT gene (tauopathy mouse), or its non-transgenic litter (normal mouse) express an undifferentiation marker (Esg1, Eras, Nanog, or SSEA1). In FIG. 1B, tauopathy mouse MEFs (MEF) were used as a negative control, and mouse embryonic stem cells (ESCs) were used as a positive control. […] The inserted drawings show enlarged diagrams of neurites.
Accordingly, these iNs were confirmed to be glutamatergic neurons.

mouse tauopathy iNs [4] = assay: Cell survival rate of mouse tauopathy iNs; settings: added at day 7, survival at day 10
Description: as §1, §2

human tauopathy iNs [5] = assay: Sucrose density-gradient fractionation, localization of tau oligomer and lipid raft; settings: tauopathy iNs treated with MbCD, then sucrose density-gradient fractionation, Western blot
From the text: FIGS. 11A and 11B show results of preparing a culture supernatant and cell extracts from human tauopathy iNs or human normal iNs of day 14 and analyzing the amounts of human tau and a tau oligomer contained in the culture supernatant or the cell extracts by use of dot blot (FIG. 11A), and graphs on which their signals were quantified (FIG. 11B).
Lipid raft was biochemically isolated from human tauopathy iNs or human normal iNs and analyzed for its colocalization with a tau oligomer. Specifically, iNs were homogenized using a 29-gauge needle in a buffer containing 1% Lubrol and a protease inhibitor, and the cell homogenates were adjusted to a sucrose concentration of 40%. Then, a 0.7 ml aliquot thereof was fractionated by the sucrose density-gradient centrifugation method. The sucrose density gradient used was steps of 30% (1.4 ml), 27.5% (0.7 ml), 24% (1.4 ml), and 3% […] (5-ml tube), and the centrifugation conditions involved 50,000 rpm, 4° C., and 16 hours using Optima-MAX XP1 (Beckman Coulter, Inc.). After the centrifugation, a 0.7 ml aliquot was recovered from the upper layer to obtain 7 fractions (F1 to F7).
The lipid raft (GM1 ganglioside) was recovered into F2 and F3 of the human normal iNs and contained in F2 and F3 as well as in a small amount in F4 of human tauopathy iNs. The tau oligomer in the tauopathy iNs was contained mainly in F3 and also contained in F2 and F4. […]

human normal iNs [6] = assay: Spontaneous firing rate using a MEA system; settings: final concentration 1 μg/ml
Description: iPSCs for neural differentiation were inoculated to a culture dish for the exclusive use of MEA coated with poly-L-lysine and Matrigel, and induced to differentiate into neurons according to the [Approach 2]. At day 8 (mouse iNs) or day 12 (human iNs), extracellular electrical recordings were measured using a multielectrode array system (MEA60, Multi Channel Systems MCS GmbH). Data was obtained using MC_Rack software (extracellular electrical recordings). Offline Sorter ver. 3 (Plexon Inc.) was used in spike analysis. The spikes were sorted and then analyzed using Neuroexplorer software (Nex Technologies, LLC).
A culture supernatant of human tauopathy iNs or human normal iNs of days 12 to 14 was added to human normal iNs of day 20, and a spontaneous firing rate was measured using the MEA system of the [Approach 6]. […] By contrast, in the human normal iNs supplemented with the culture supernatant of the human normal iNs, no increase in spontaneous firing rate occurred substantially (FIGS. 12E and 12F).
The P301S tau monomer or the P301S tau oligomer was added (final concentration: 1 μg/ml) to the culture system of human normal iNs, and a spontaneous firing rate was measured using a MEA system ([Approach 6]). […]

human normal iNs [7] = assay: Cell survival rate of human normal iNs after addition of P301S tau monomer or oligomer; settings: for cell survival rate: two days later
Description: FIGS. 13D and 13F show results of adding the tau monomer or the tau oligomer of FIG. 13A to a medium of human normal iNs of day 20 and measuring a spontaneous firing rate using a MEA system (FIG. 13D). The arrows represent the timing at which the tau monomer or the tau oligomer was added. FIG. 13E is a graph indicating the ratio of spike number between before and after the addition.
P301S mutant human tau produced as a recombinant protein was oligomerized by incubation in the presence of heparin. Specifically, 0.5 mg/ml tau protein was incubated at 37° C. for 16 hours in a 10 mM HEPES buffer (pH 7.4) containing 10 μM heparin (Sigma-Aldrich Co. LLC) and 100 mM NaCl (Sahara N. and Takashima A, EMBO J., 26: 5143-52, 2007). Then, the solution was treated at 70° C. for 15 minutes and then subjected to SDS-PAGE and silver staining. As is evident, the tau before the incubation in the presence of the heparin was mostly monomeric and dimeric, whereas the tau after the incubation included a large number of trimeric or larger associates (i.e., tau oligomers). Hereinafter, the tau before the incubation in the presence of the heparin is referred to as a “P301S tau monomer”, and the tau after the incubation is referred to as a “P301S tau oligomer”.
The P301S tau monomer or the P301S tau oligomer was added to the culture system of human normal iNs, followed by cell survival rate analysis two days later.

| Molecule | amount of a tau oligomer contained in the cell extracts (mouse tauopathy iNs [1]) | amount of a tau oligomer contained in the culture supernatant (mouse tauopathy iNs [1]) | cell survival rate (human tauopathy iNs [2]; 25 μM) | generation of excitatory postsynaptic current [3] | generation of action potential [3] | cell survival rate (mouse tauopathy iNs [4]) | spontaneous firing rate (human normal iNs [6]) | cell survival rate (human normal iNs [7]; 1 μg/ml) | also measured |
| --- | --- | --- | --- | --- | --- | --- | --- | --- | --- |
| N[C@H](CCCP(=O)(O)O)C(=O)O [AP-5, D-(−)-2-amino-5-phosphononpentanoic acid] | no significant change | approximately 50 % of the negative control | significantly elevated | suppressed | did not generate action potential | approximately 2 times the negative control |  |  | cell survival rate (human tauopathy iNs [2]; 12.5 μM): significantly elevated |
| N#Cc1cc2c(cc1[N+](=O)[O-])=NC(=O)C(=O)N=2 [CNQX, 6-cyano-7-nitroquinoxaline-2,3-dione] | approximately 70 % of the negative control | approximately 50 % of the negative control | significantly elevated | suppressed | did not generate action potential | approximately 2 times the negative control |  |  |  |
| Methyl-β-cyclodextrin [MbCD] |  |  |  |  |  |  |  |  | recovery of tau oligomer into lipid raft fractions (human tauopathy iNs [5]): not recovered into F2 to F4 |
| P301S tau oligomer: recombinant P301S mutant human tau after incubation in the presence of heparin; trimeric or larger associates |  |  |  |  |  |  | approximately 290 % of that before the addition | significantly decreased | cell survival rate (human normal iNs [7]; 0.1 μg/ml): significantly decreased; induction of cell death (human normal iNs [7]; 100 ng/ml): tended to induce cell death, albeit not significant |
| P301S tau monomer: recombinant P301S mutant human tau before the incubation with heparin, mostly monomeric and dimeric |  |  |  |  |  |  | approximately 120 % of that before the addition | not changed |  |
